What was measured:
Aβ 1-42 = biological target: T1, Aβ 1-42 (Homo sapiens, UniProt P05067); test: Fluorometric H2O2 assay (inhibition of Abeta H2O2 production); assay type: biochemical; details: concentration required to inhibit 50% of Abeta H2O2 production; read-out: H2O2 IC50
T1 construct: The reaction solutions contained Aβ 1-42 at concentrations
Procedure, shortened: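 Reactions in PBS pH 7.4 at 37 C for 60 min, containing Aβ, copper and test compound. H2O2 output read as fluorescence of HRP-coupled deacetylated DCF. Fluorescence converted to H2O2 concentration via H2O2 standards.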

[1] = test system: M17 human neuroblastoma cells; test: Cytotoxicity, M17 human neuroblastoma cells; assay type: cell-based
Experimental: Assay 3. MTS Assay for Cell Viability
Cell viability is determined using the MTS assay. Culture medium is replaced with fresh neurobasal medium plus B27 supplements minus antioxidants. 1/10th volume MTS solution (Cell Titre 96 Aqueous One, Promega Corporation) and incubated at 37° C., 2 hrs. 200 microliter aliquots are measured with a spectrophotometer at 560 nm.

[2] = test system: Abeta in extract of post-mortem human AD brain tissue; test: BAS: human brain amyloid solubilization assay; assay type: biochemical; details: max effect across the concentration range, referenced to baseline PBS
Procedure, shortened: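 Plaque-bearing post-mortem AD cortex homogenised in ice-cold PBS pH 7.4; soluble Aβ in 100,000×g supernatant, insoluble Aβ from resuspended pellet. Fractions run on Tris-Tricine SDS-PAGE, immunoblotted with W02, densitometry against synthetic Aβ40 standards.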

[3] = Mice plasma concentration after oral dose; assay type: in vivo; details: 30 min to 4 h after single or repeat oral dose of 30 mg/kg
Aβ deposits = details: daily oral gavage 30 mg/kg, 9 weeks, 13-14 months old transgenic mice
[4] = Toxicity, visual observations in mice; details: 30 mg/kg; duration and visual observations

T1 sequence (P05067 672-713 limits assumed): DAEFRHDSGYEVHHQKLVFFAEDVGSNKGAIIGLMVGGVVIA

Structure (SMILES): CN(C)Cc1ccc2c(Cl)cc(Cl)c(O)c2n1.Cl [PB 1033]
- IC50 (Aβ 1-42): 350 nM
- Cytotox (% viable) M17 cells at 1 μM ([1]; 1 μM test compound): 94%
- Cytotox (% viable) M17 cells at 10 μM ([1]; 10 μM test compound): 54.3%
- BAS max effect [2]: 470%
- Mice plasma concentration [3]: Up to 500 ng/ml ng/mL
- Tg Mice % difference from control in Amyloid plaque abundance (Aβ deposits): −42%
- Tg Mice % difference from control in insoluble brain amyloid burden (Aβ deposits): −29%
- Tg Mice % difference from control in soluble brain amyloid burden (Aβ deposits): −37%
- Toxicity at 30 mg/kg [4]: 10 days, none
